{
  "source": "patent US20220340629A1",
  "about": "“Myosin Derived Peptides and Related Compounds with Anticoagulant Activities” (THE SCRIPPS RESEARCH INSTITUTE, priority 0001, published 2022)",
  "key": {"[1]": {"tested_on": "thrombin generation in human platelet poor plasma with skeletal muscle myosin", "test": "Assay 2A: thrombin generation, recalcification of human platelet poor plasma + myosin", "type": "biochemical", "details": "human plasma, recalcification, myosin present; read-out: 2A (recalcification +myosin) IC50", "how_it_was_run": "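Pooled normal human platelet-poor plasma (30%) preincubated 5 min at 37° C with 50 nM skeletal muscle myosin and peptide in DMSO. Coagulation triggered with 10 mmol/L CaCl2 plus fluorogenic Z-Gly-Gly-Arg-AMC; thrombin generation followed 25 min (ex 360/em 460 nm). IC50 = peptide concentration giving 50% inhibition of thrombin generation.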"}, "[2]": {"tested_on": "skeletal muscle myosin-supported prothrombin activation by factors Xa and Va", "test": "Assay 1A: prothrombin activation by factor Xa/factor Va/myosin in purified system", "type": "biochemical, human factors Xa and Va; rabbit skeletal muscle myosin"}, "[3]": {"target": "skeletal muscle myosin-supported prothrombin activation by factors Xa and Va (Homo sapiens, UniProt P00742)", "sequence (P00742 41-179)": "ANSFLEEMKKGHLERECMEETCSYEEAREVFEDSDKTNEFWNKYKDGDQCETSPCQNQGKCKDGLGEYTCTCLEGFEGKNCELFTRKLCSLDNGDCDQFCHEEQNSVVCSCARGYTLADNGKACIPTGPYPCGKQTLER", "sequence (P00742 235-488)": "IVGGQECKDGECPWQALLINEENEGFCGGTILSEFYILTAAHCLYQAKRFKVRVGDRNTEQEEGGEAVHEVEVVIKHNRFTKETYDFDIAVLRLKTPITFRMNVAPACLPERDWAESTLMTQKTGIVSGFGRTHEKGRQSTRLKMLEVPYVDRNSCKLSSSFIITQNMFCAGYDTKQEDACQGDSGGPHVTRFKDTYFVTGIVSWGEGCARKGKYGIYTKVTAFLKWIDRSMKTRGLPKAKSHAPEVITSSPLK", "sequence (P12259 29-737 partner)": "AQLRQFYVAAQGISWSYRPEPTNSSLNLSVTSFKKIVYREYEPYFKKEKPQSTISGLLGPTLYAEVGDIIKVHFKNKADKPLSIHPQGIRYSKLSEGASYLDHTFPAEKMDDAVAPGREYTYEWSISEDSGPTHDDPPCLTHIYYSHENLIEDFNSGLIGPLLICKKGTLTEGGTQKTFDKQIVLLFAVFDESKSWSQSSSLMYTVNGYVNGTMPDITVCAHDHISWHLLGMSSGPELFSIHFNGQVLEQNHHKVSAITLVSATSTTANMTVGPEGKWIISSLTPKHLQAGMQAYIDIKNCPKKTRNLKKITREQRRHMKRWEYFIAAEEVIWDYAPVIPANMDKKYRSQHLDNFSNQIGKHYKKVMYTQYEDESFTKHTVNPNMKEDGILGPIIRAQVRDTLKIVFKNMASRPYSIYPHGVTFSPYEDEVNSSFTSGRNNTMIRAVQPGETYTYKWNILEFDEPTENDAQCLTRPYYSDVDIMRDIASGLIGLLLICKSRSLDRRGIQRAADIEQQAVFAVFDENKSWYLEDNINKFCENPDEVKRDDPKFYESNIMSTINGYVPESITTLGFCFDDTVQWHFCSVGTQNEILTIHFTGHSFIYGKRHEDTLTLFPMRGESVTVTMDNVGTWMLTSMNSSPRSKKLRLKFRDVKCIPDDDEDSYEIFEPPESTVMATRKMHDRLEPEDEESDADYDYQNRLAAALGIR", "sequence (P12259 1574-2224 partner)": "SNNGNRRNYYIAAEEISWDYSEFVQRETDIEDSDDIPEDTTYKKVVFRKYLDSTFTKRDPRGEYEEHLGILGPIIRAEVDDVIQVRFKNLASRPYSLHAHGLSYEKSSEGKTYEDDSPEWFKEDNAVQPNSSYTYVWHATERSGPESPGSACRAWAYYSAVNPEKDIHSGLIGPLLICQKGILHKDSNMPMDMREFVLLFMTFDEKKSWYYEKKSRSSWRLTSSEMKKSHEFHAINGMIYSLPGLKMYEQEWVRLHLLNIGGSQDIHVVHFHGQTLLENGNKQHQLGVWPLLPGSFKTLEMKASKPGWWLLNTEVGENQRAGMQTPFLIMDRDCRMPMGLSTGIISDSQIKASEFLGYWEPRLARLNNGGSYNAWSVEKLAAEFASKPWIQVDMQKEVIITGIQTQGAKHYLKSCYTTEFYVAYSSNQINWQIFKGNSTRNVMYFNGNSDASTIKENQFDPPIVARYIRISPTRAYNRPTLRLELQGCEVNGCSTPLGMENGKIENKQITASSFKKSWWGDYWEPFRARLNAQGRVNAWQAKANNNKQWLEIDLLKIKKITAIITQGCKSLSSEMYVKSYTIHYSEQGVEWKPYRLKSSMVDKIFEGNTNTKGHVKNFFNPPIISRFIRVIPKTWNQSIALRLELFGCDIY", "test": "Assay 1A: prothrombin activation by factor Xa/factor Va/myosin in purified system", "type": "biochemical, human factors Xa and Va; rabbit skeletal muscle myosin", "details": "FIG. 5; read-out: IC50, prothrombin activation by factor Xa/factor Va/myosin in purified system"}, "[4]": {"tested_on": "thrombin generation in human whole blood", "test": "Assay 4: thrombin generation in recalcified human whole blood", "type": "biochemical", "details": "recalcification", "method": "In addition to purified protein system and human plasma, assays using whole blood (Assay 4) were also performed to examine anti-coagulant activities of the peptides and derivative compounds. In these assays, freshly drawn anticoagulated human whole blood (80 μL aliquot) was incubated with peptide in DMSO or DMSO alone (control) for 5 min at 37° C. Then, fluorogenic thrombin substrate solution (Z-Gly-Gly-Arg-AMC) (I-1140) with 10 mmol/L CaCl2 (final) alone was added to the reaction mixture (total 110 μl) in 96 well plate to initiate coagulation. Thrombin generation was followed continuously for 25 min using SPECTRAmax GEMINI XS fluorometer (Molecular Devices, Sunnyvale, Calif.) with excitation and emission wavelengths set at 360 and 460 nm, respectively. The first derivative of fluorescence versus time was used to produce thrombin generation curves with the correction for substrate consumption and inner filter effect. IC50 were determined using a curve fit program in Prism7.0 (GraphPad Software, San Diego, Calif.)."}, "[5]": {"target": "T1, cardiac myosin-enhanced prothrombin activation by factors Xa and Va (Homo sapiens, UniProt P00742)", "T1 construct": "factor Va (5 nM, final) and factor Xa (0.2 nM, final)", "T1 sequence (P00742 41-179 limits assumed)": "as the sequence (P00742 41-179) above", "T1 sequence (P00742 235-488 limits assumed)": "as the sequence (P00742 235-488) above", "test": "Cardiac myosin-enhanced prothrombin activation", "type": "biochemical", "details": "peptide 0 to 12.5 μM, cardiac myosin 2 nM, FIG. 17", "method": "Varying concentrations of peptide HC796-835 (SEQ ID NO:21), ranging from 0 to 12.5 μM, were incubated with factor Va (5 nM, final) and factor Xa (0.2 nM, final) in Tris buffered saline containing bovine serum albumin (TBSA) plus 5 mM CaCl2 at room temperature in the presence of cardiac myosin (2 nM, final). Thrombin generation was initiated by the addition of prothrombin (0.75 μM) in TB SA containing 5 mM CaCl2. The reaction was quenched by adding EDTA (10 mM final) at 10 min. The rate of thrombin formation was quantified by measuring thrombin concentration as the rate of thrombin substrate hydrolysis. 100% was the value for controls in the absence of added peptides. Each value represents the mean [±SEM] of triplicate determinations."}, "[6]": {"tested_on": "thrombin generation in human plasma", "test": "Thrombin generation assay in pooled normal human plasma (Examples 3 and 4)", "type": "biochemical", "method": "Thrombin generation assay in pooled human plasma: The effect of synthetic peptides on thrombin generation in pooled normal human plasma (George King Bio-medical, Inc., Overland Park, KS) was tested as described (1,11). Briefly, normal human plasma (30 μl) was mixed with CTI, followed by the addition of peptide. Then, tissue factor (TF) (Innovin) (0.5[…] pM final) containing 30 mM Ca^++ in TBSA with fluorogenic thrombin substrate solution (I-1140) (Bachem Americas, Inc., Torrance, Calif.) were added to the plasma to initiate coagulation activation. The first derivative of the time course data for substrate hydrolysis yielded the thrombin generation curve, allowing measurement of thrombin generation during the initiation, propagation and termination phases of thrombin generation and the value for peak thrombin generated."}, "[7]": {"target": "phospholipid-supported prothrombin activation by factors Xa and Va (Homo sapiens, UniProt P00742)", "sequence (P00742 41-179 limits assumed)": "as the sequence (P00742 41-179) above", "sequence (P00742 235-488 limits assumed)": "as the sequence (P00742 235-488) above", "test": "Assay 1C: phospholipid vesicle (PC/PS 80%/20%)-supported prothrombin activation", "type": "biochemical"}, "factor Xa": {"target": "factor Xa (Homo sapiens, UniProt P00742)", "test": "Factor Xa peptide binding assay (immobilized peptide)", "details": "FIG. 2C; read-out: apparent Kd, factor Xa binding to immobilized peptide", "method": "Factor Xa Peptide Binding Assays: Peptide HC796-835 at 10 μg/mL in sodium bicarbonate (pH 9.3) was coated onto the wells of microtiter plates and then blocked with 5% fatty acid free BSA in TBS. After washing the plate with TBSA containing 5 mM CaCl2, various concentrations of factor Xa in binding buffer consisting of TBSA containing 5 mM CaCl2 were incubated in plate wells for 1 h at room temperature. Following 3 washings, bound factor Xa was detected by adding chromogenic substrate for factor Xa (S2222, Chromogenix, Franklin, Ohio). The absorbance values observed for triplicate noncoated wells lacking peptides served as nonspecific controls for binding and were subtracted from observed values for corresponding duplicate peptide-coated wells. Nonspecific binding of Factor Xa ranged from 5 to 20% of total observed binding in various experiments.\nStatistical analysis: Apparent Kd values using saturation binding curve fit were performed using Prism™ 7.0 software (Graph Pad Software Inc., San Diego, Calif.)."}},
  "note": "pIC50, pKd: −log10 of the molar value. Residues, ends and D or L forms follow the SMILES beside them.",
  "data": [
    {"smiles": "CC[C@H](C)[C@H](NC(=O)[C@H](C)NC(=O)[C@H](CCC(=O)O)NC(=O)[C@H](CCCNC(=N)N)NC(=O)[C@H](CCCNC(=N)N)NC(=O)[C@H](CCC(=O)O)NC(=O)[C@@H](NC(=O)[C@H](CCSC)NC(=O)[C@H](CCCNC(=N)N)NC(=O)[C@H](CCC(N)=O)NC(=O)[C@H](Cc1ccc(O)cc1)NC(=O)[C@H](CCC(=O)O)NC(=O)[C@@H](NC(=O)[C@H](CCCNC(=N)N)NC(=O)[C@H](C)NC(=O)[C@H](CC(C)C)NC(=O)[C@H](Cc1ccccc1)NC(=O)CNC(=O)[C@H](CCCNC(=N)N)NC(=O)[C@H](CS)NC(=O)[C@H](CCCNC(=N)N)NC(=O)[C@H](C)N)C(C)C)C(C)C)C(=O)N[C@@H](Cc1ccccc1)C(=O)N[C@@H](CS)C(=O)N[C@H](C(=O)N[C@@H](CCC(N)=O)C(=O)N[C@@H](Cc1ccc(O)cc1)C(=O)N[C@@H](CC(N)=O)C(=O)N[C@H](C(=O)N[C@@H](CCCNC(=N)N)C(=O)N[C@@H](CO)C(=O)N[C@@H](Cc1ccccc1)C(=O)N[C@@H](CCSC)C(=O)N[C@@H](CC(N)=O)C(=O)N[C@H](C(=O)N[C@@H](CCCCN)C(=O)N[C@@H](Cc1c[nH]cn1)C(=O)N[C@@H](Cc1c[nH]c2ccccc12)C(=O)N1CCC[C@H]1C(=O)N[C@@H](Cc1c[nH]c2ccccc12)C(N)=O)C(C)C)[C@@H](C)CC)[C@@H](C)CC", "note": "[HC796-835] (H-ARCRGFLARVEYQRMVERREAIFCIQYNIRSFMNVKHWPW-NH2)", "values": [
      {"measurement": "pIC50", "setting": "[1]", "result": 5.42},
      {"measurement": "pIC50", "setting": "[2]; dose-dependency assays, FIG. 2A, myosin 2 nM, read-out: IC50, inhibition of myosin-supported prothrombin activation", "result": 5.92},
      {"measurement": "inhibition of myosin-supported prothrombin activation at 5 μM", "setting": "[2]; peptide 5 μM, FIG. 1A", "result": "inhibitory, to varying degrees"},
      {"measurement": "inhibition of myosin-supported prothrombin activation at 100 μM", "setting": "[2]; peptide 100 μM, FIG. 1A", "result": "inhibited"},
      {"measurement": "pIC50", "setting": "[3]", "result": 5.89},
      {"measurement": "4 (recalcification) IC50", "setting": "[4]", "result": "No activity"},
      {"measurement": "inhibition of cardiac myosin-enhanced prothrombin activation", "setting": "[5]", "result": "inhibition"},
      {"measurement": "pIC50", "setting": "[6]; FIG. 3B, peptide 0-25 μM, read-out: IC50, inhibition of thrombin generation in plasma", "result": "~5.26"},
      {"measurement": "inhibition of thrombin generation in human plasma", "setting": "[6]; screened at 25 μM, FIG. 3A", "result": "significantly inhibited"},
      {"measurement": "inhibitory effects on phospholipid-supported prothrombin activation", "setting": "[7]; compared with effects on myosin-supported prothrombin activation", "result": "not apparent"},
      {"measurement": "1C (+phospholipid)", "setting": "[7]; purified system, phospholipid vesicles", "result": "No activity"},
      {"measurement": "pKd", "setting": "factor Xa", "result": 5.85}
    ]}
  ]
}
